{
  "source": "patent US20250312407A1",
  "about": "“PEPTIDE AND USE THEREOF” (AJINOMOTO CO., INC., priority 2019, published 2025)",
  "type_in_all_cases": "in vivo, mouse",
  "key": {"[1]": {"tested_on": "male C57BL/6J mice", "experiment": "Oral glucose tolerance test (OGTT)", "conditions": "30 mg/kg oral", "procedure": "The administration medium (0.5% methylcellulose; vehicle) or compound 1 (30 mg/kg) was orally administered to male C57BL/6J mice (7 weeks old) that had been fasted from 17 o'clock the day before, and 2 g/kg of glucose was orally administered by gavage 1 hr later. Blood was collected from the tail vein before administration, and 15, 30, 60, 120 and 180 min after administration, and the blood glucose level was measured.\nThe blood glucose level after glucose loading remained low in the compound 1 administration group from 30 min after loading and thereafter. The results of the area under curve (ΔAUC) of the blood glucose level profile calculated with the 0-minute value as the standard are shown in FIG. 2."}, "[2]": {"tested_on": "male KK-Ay mice", "experiment": "Insulin tolerance test (ITT)", "conditions": "30 mg/kg oral, insulin 0.5 U/kg s.c. 1 hr later, profile and ΔAUC vs vehicle group", "procedure": "The administration medium (0.5% methylcellulose; vehicle) or compound 1 (30 mg/kg) was orally administered to male KK-Ay mice (7 to 12 weeks old) that had been fasted from 17 o'clock the day before, and insulin (0.5 U/kg) was subcutaneously administered 1 hr later. Blood was collected from the tail vein before administration, and 15, 30, 60, 120 and 180 min after administration, and the blood glucose level was measured. The blood glucose level was also measured for compounds 2 to 6 by a similar method. The results of the area under curve (ΔAUC) of the blood glucose level profile calculated with the 0-minute value as the standard are shown in FIG. 3(b)."}, "[3]": {"tested_on": "ornithine/citrulline ratio", "experiment": "Anti-fatigue action (plasma ornithine/citrulline ratio)", "conditions": "30 mg/kg by gavage, C57BL/6J mice, portal vein, 120 min after administration, vs vehicle group", "procedure": "The administration medium (0.5% methylcellulose; vehicle) or compound 1 (30 mg/kg) was administered by gavage to male C57BL/6J mice (7 weeks old) that had been under fasting treatment overnight. Blood was collected from the portal vein 120 min after administration, and the plasma ornithine and citrulline concentrations were measured. The ornithine/citrulline ratio in plasma is known as a biomarker that increases during fatigue such as chronic fatigue syndrome and the like (e.g., Yamano E et al., “Index markers of chronic fatigue syndrome with dysfunction of TCA and urea cycles”, Scientific Reports, 2016 Oct. 11; 6:34990, doi: 10.1038/srep34990, which is incorporated herein by reference in its entirety)."}, "[4]": {"tested_on": "male KK-Ay mice", "experiment": "Intestine permeability (plasma FD-4 after oral FITC-dextran)", "conditions": "100 mg/kg oral, vs vehicle group", "procedure": "The administration medium (0.5% methylcellulose; vehicle) or compound 1 (100 mg/kg) was orally administered to male KK-Ay mice (11 weeks old) that had been fasted from 10 o'clock the day before, and FITC-dextran (FD-4) (300 mg/kg) was orally administered 1 hr later. Blood was collected from the tail vein 1 hr and 2 hr after FD-4 administration, and the plasma FD-4 concentration was measured."}, "[5]": {"tested_on": "acetyl-L-carnitine", "experiment": "Anti-stress, neuroprotective action (plasma acetyl-L-carnitine after restraint stress)", "conditions": "30 mg/kg oral after 3 hr restraint stress, C57BL/6J mice, 120 min after administration, vs vehicle group", "source_text": "Male C57BL/6J mice (9-week-old) that had been under fasting treatment overnight were housed in a restraint stress cage for mice, and allowed to stand for 3 hr. […] Acetyl-L-carnitine is an endogenous metabolite known to have an anti-stress and neuroprotective action (e.g., Nasca C et al., “L-acetylcarnitine causes rapid antidepressant effects through the epigenetic induction of mGlu2 receptors”, Proc. Natl. Acad. Sci. USA, 2013 Mar. 19; 110 (12): 4804-4809; and Kazak F et al., “Neuroprotective effects of acetyl-1-carnitine on lipopolysaccharide-induced neuroinflammation in mice: Involvement of brain-derived neurotrophic factor”, Neuroscience Letters, 2017 Sep. 29; 658:32-36, which are incorporated herein by reference in their entireties)."}, "[6]": {"tested_on": "FGF21", "experiment": "FGF21 secretion promoting action (plasma FGF21 concentration)", "conditions": "30 mg/kg by gavage, C57BL/6J mice, portal vein, 120 min after administration, vs vehicle group", "procedure": "The administration medium (0.5% methylcellulose; vehicle) or compound 1 (30 mg/kg) was administered by gavage to male C57BL/6J mice (8 weeks old) that had been under fasting treatment for 6 hr. Blood was collected from the portal vein before administration and 120 min after administration, and the plasma FGF21 concentration was measured."}},
  "data": [
    {"sequence": "LIVTQTMKGL (Designed peptide) [compound 1]", "values": [
      {"measurement": "area under curve (ΔAUC) of the blood glucose level profile, OGTT", "setting": "[1]; 0-minute value as the standard, vs vehicle group", "value": "low value as compared with the vehicle group"},
      {"measurement": "blood glucose level after glucose loading", "setting": "[1]; 2 g/kg glucose 1 hr later, from 30 min after loading", "value": "remained low"},
      {"measurement": "blood glucose level after insulin (insulin sensitivity improving effect), ITT", "setting": "[2]", "value": "significant decrease in blood glucose"},
      {"measurement": "blood ornithine/citrulline ratio", "setting": "[3]", "value": "decreased"},
      {"measurement": "blood FD-4 concentration", "setting": "[4]; 1 hr after oral FD-4 (300 mg/kg)", "value": "suppression of an increase in the blood FD-4 concentration was observed"},
      {"measurement": "blood FD-4 concentration", "setting": "[4]; 2 hr after oral FD-4 (300 mg/kg)", "value": "suppression of an increase in the blood FD-4 concentration was observed"},
      {"measurement": "blood acetyl-L-carnitine concentration", "setting": "[5]", "value": "increase in the blood acetyl-L-carnitine concentration was observed"},
      {"measurement": "blood FGF21 concentration", "setting": "[6]", "value": "increase in the blood FGF21 concentration was confirmed"}
    ]}
  ]
}
